According to ChEMBL document CHEMBL4138182, “Aminomethylation of heliomycin: Preparation and anticancer characterization of the first series of semi-synthetic derivatives” (Eur J Med Chem, 2018):
Calls of active or inactive are those of the source. The calls are words filed in the database; no cut-off is given here.

What was measured:
HCT-116 [1] = test: Antiproliferative activity against human HCT116 cells after 72 hrs by MTT assay; format: functional, cell-based; conditions: HCT-116, 72 h
HCT-116 [2] = test: Antiproliferative activity against p53 deficient human HCT116 cells after 72 hrs by MTT assay; format: functional, cell-based; conditions: HCT-116, 72 h
K562 = test: Antiproliferative activity against human K562 cells after 72 hrs by MTT assay; format: functional, cell-based; conditions: K562, 72 h
[3] = Antiproliferative activity against human K562/4 cells after 72 hrs by MTT assay; format: functional, cell-based; conditions: K562/4, 72 h
L1210 = test: Antiproliferative activity against mouse L1210 cells after 72 hrs by MTT assay; format: functional, cell-based; conditions: L1210, 72 h
CCRF-CEM = test: Antiproliferative activity against human CEM cells after 72 hrs by MTT assay; format: functional, cell-based
HeLa = test: Antiproliferative activity against human HeLa cells after 72 hrs by MTT assay; format: functional, cell-based
HMEC-1 = test: Antiproliferative activity against HMEC1 cells after 72 hrs by MTT assay; format: cell-based; conditions: Homo sapiens, HMEC-1, 72 h
[4] = Selectivity index, ratio of IC50 for HMEC1 cells to IC50 for human HCT116 cells; format: toxicity; conditions: HMEC1 cells and HCT116 cells, read-out: Ratio IC50
[5] = Selectivity index, ratio of IC50 for HMEC1 cells to IC50 for p53 deficient human HCT116 cells; format: toxicity; conditions: HMEC1 cells and p53 deficient HCT116 cells, read-out: Ratio IC50
[6] = Selectivity index, ratio of IC50 for HMEC1 cells to IC50 for human K562 cells; format: toxicity; conditions: HMEC1 cells and K562 cells, read-out: Ratio IC50
[7] = Selectivity index, ratio of IC50 for HMEC1 cells to IC50 for human K562/4 cells; format: toxicity; conditions: HMEC1 cells and K562/4 cells, read-out: Ratio IC50
[8] = Selectivity index, ratio of IC50 for HMEC1 cells to IC50 for human CEM cells; format: toxicity; conditions: HMEC1 cells and CEM cells, read-out: Ratio IC50
[9] = Selectivity index, ratio of IC50 for HMEC1 cells to IC50 for human HeLa cells; format: toxicity; conditions: HMEC1 cells and HeLa cells, read-out: Ratio IC50
T-24 [10] = test: Growth inhibition of human T24 cells after 72 hrs by cell impedance method; format: functional, cell-based; conditions: T-24, 72 h
T-24 [11] = test: Induction of apoptosis n human T24 cells at 1 uM after 24 hrs by annexin V-FITC/propidium iodide staining-based flow cytometric method; format: functional, cell-based
T-24 [12] = test: Induction of apoptosis n human T24 cells assessed as upregulation of p53 levels at 0.5 to 1 uM after 18 hrs by Western blot method; format: functional, cell-based
T-24 [13] = test: Induction of apoptosis n human T24 cells assessed as upregulation of Bak levels at 0.5 to 1 uM after 18 hrs by Western blot method; format: functional, cell-based
T-24 [14] = test: Induction of apoptosis n human T24 cells assessed as downregulation of Bcl-2 levels at 0.5 to 1 uM after 18 hrs by Western blot method; format: functional, cell-based
T-24 [15] = test: Induction of apoptosis n human T24 cells assessed as caspase-3 cleavage at 0.5 to 1 uM after 18 hrs by Western blot method; format: functional, cell-based
T-24 [16] = test: Induction of apoptosis n human T24 cells assessed as PARP cleavage at 0.5 to 1 uM after 18 hrs by Western blot method; format: functional, cell-based
T-24 [17] = test: Induction of reactive oxygen species generation in human T24 cells at 1 uM after 30 mins by H2DCFDA dye-based flow cytometric method; format: functional, cell-based
[18] = Selectivity index, ratio of IC50 for HMEC1 cells to IC50 for mouse L1210 cells; format: toxicity; conditions: HMEC1 cells and L1210 cells, read-out: Ratio IC50
Calf thymus DNA [19] = test: Binding affinity to calf thymus double stranded DNA at 10 uM by fluorescence spectrophotometer; format: nucleic-acid assay; conditions: Bos taurus
Calf thymus DNA [20] = test: Binding affinity to calf thymus double stranded DNA by Benesi-Hildebrand plot analysis; format: nucleic-acid assay, Bos taurus
[21] = target: T1, DNA topoisomerase 1 (Homo sapiens) (UniProt P11387); test: Inhibition of human DNA topoisomerase 1 assessed as decrease in relaxation of pBR322 at <= 20 uM after 30 to 40 mins by agarose gel electrophoresis
T1 sequence (whole entry): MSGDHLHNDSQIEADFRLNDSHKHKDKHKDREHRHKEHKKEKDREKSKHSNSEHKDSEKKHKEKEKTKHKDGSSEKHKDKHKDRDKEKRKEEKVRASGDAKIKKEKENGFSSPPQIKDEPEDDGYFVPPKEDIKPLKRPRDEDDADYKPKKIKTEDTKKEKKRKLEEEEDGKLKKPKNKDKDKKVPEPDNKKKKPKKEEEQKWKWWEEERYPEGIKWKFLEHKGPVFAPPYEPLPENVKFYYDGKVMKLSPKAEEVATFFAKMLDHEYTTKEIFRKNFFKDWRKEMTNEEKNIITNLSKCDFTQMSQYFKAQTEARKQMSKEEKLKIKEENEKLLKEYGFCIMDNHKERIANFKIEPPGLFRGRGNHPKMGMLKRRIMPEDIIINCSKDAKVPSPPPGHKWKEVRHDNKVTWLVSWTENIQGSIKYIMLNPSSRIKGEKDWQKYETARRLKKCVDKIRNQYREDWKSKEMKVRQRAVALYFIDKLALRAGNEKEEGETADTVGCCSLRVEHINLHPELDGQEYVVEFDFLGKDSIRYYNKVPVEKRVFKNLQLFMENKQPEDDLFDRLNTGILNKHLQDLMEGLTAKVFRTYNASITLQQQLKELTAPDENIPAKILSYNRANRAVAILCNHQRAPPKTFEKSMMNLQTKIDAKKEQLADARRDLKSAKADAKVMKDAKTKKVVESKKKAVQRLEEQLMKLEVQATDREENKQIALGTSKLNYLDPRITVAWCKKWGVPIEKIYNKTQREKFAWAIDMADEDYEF

Compound | IC50 (HCT-116 [1]) | IC50 (HCT-116 [2]) | IC50 (K562) | IC50 [3] | IC50 (L1210) | IC50 (CCRF-CEM) | IC50 (HeLa) | also measured
Cc1cc(O)c2c3c4c(cc(O)c13)C(C)(C)C(=O)c1c(O)c(CN3CCCC3)c(O)c(c1-4)C2=O | 200 nM | 100 nM | 1200 nM | 3400 nM | 14100 nM | 7200 nM | 14200 nM | –
CCN1CCN(Cc2c(O)c3c4c(c2O)C(=O)C(C)(C)c2cc(O)c5c(C)cc(O)c(c5c2-4)C3=O)CC1 | 1600 nM | 1700 nM | 900 nM | 3400 nM | 800 nM | 800 nM | 800 nM | –
Cc1cc(O)c2c3c4c(cc(O)c13)C(C)(C)C(=O)c1c(O)c(CN3CCOCC3)c(O)c(c1-4)C2=O | 300 nM | 200 nM | 8600 nM | 300 nM | 62000 nM | 24200 nM | 11100 nM | –
Cc1cc(O)c2c3c4c(cc(O)c13)C(C)(C)C(=O)c1c(O)c(CNC(C)(C)C)c(O)c(c1-4)C2=O | 600 nM | 300 nM | 500 nM | 1600 nM | 8800 nM | 300 nM | 700 nM | IC50 (HMEC-1): 7800 nM; selectivity ratio [4]: 2 to 50; selectivity ratio [5]: 2 to 50; selectivity ratio [6]: 2 to 50; selectivity ratio [7]: 2 to 50; selectivity ratio [8]: 2 to 50; selectivity ratio [9]: 2 to 50; IC50 (T-24 [10]): 1100 nM; Activity (T-24 [11]): Active; Activity (T-24 [12]): Active; Activity (T-24 [13]): Active; Activity (T-24 [14]): Active; Activity (T-24 [15]): Active; Activity (T-24 [16]): Active; Activity (T-24 [17]): Active
Cc1cc(O)c2c3c4c(cc(O)c13)C(C)(C)C(=O)c1c(O)c(CN3CCNCC3)c(O)c(c1-4)C2=O | 4800 nM | 1800 nM | 2500 nM | 5800 nM | 4200 nM | 5600 nM | 5400 nM | –
Cc1cc(O)c2c3c4c(cc(O)c13)C(C)(C)C(=O)c1c(O)c(CN(C)C)c(O)c(c1-4)C2=O | 1100 nM | 600 nM | 700 nM | 1000 nM | 17000 nM | 17100 nM | 28300 nM | IC50 (HMEC-1): 32600 nM; selectivity ratio [4]: 2 to 50; selectivity ratio [5]: 2 to 50; selectivity ratio [6]: 2 to 50; selectivity ratio [7]: 2 to 50; selectivity ratio [18]: 2 to 50; Activity (Calf thymus DNA [19]): Active; Kd (Calf thymus DNA [20]): 34000 nM; Kb (Calf thymus DNA [20]; Bos taurus): 3 ×10⁴ /M; IC50 (T-24 [10]): 4700 nM; Topoisomerase 1 inhibition (active/inactive) [21]: Active; Activity (T-24 [11]): Active; Activity (T-24 [12]): Active; Activity (T-24 [13]): Active; Activity (T-24 [14]): Active; Activity (T-24 [15]): Active; Activity (T-24 [16]): Active; Activity (T-24 [17]): Active
CCN(CC)Cc1c(O)c2c3c(c1O)C(=O)C(C)(C)c1cc(O)c4c(C)cc(O)c(c4c1-3)C2=O | 1100 nM | 500 nM | 400 nM | 300 nM | > 250000 nM | 198000 nM | > 250000 nM | –
Cc1cc(O)c2c3c4c(cc(O)c13)C(C)(C)C(=O)c1c(O)c(CN3CCCCC3)c(O)c(c1-4)C2=O | 300 nM | 100 nM | 300 nM | 800 nM | 3400 nM | 900 nM | 800 nM | –
Cc1cc(O)c2c3c4c(cc(O)c13)C(C)(C)C(=O)c1c(O)c(CN3CCC(N)C3)c(O)c(c1-4)C2=O (centres undefined) | 3600 nM | 1100 nM | 1500 nM | 4500 nM | 2900 nM | 3400 nM | 2600 nM | –
Cc1cc(O)c2c3c4c(cc(O)c13)C(C)(C)C(=O)c1c(O)c(CN3CCN(CCO)CC3)c(O)c(c1-4)C2=O | 3700 nM | 1300 nM | 2700 nM | 4200 nM | 3000 nM | 5200 nM | 4800 nM | –
Cc1cc(O)c2c3c4c(cc(O)c13)C(C)(C)C(=O)c1c(O)c(CN3CCCC(O)C3)c(O)c(c1-4)C2=O (centres undefined) | 1000 nM | 900 nM | 700 nM | 900 nM | 3400 nM | 2100 nM | 3600 nM | –
Cc1cc(O)c2c3c4c(cc(O)c13)C(C)(C)C(=O)c1c(O)c(CN3CCN(C)CC3)c(O)c(c1-4)C2=O | 3300 nM | 500 nM | 1200 nM | 4500 nM | 2300 nM | 2100 nM | 3600 nM | –
Cc1cc(O)c2c3c4c(cc(O)c13)C(C)(C)C(=O)c1c(O)c(CNCCN(C)C)c(O)c(c1-4)C2=O | 200 nM | 700 nM | 2200 nM | 2200 nM | 1900 nM | 1800 nM | 3900 nM | –
